Test results from publication PMC9532562 (Acta Pharmaceutica Sinica. B, 2022).

Tests used:
HDAC5 = HDAC5 (Homo sapiens, UniProt Q9UQL6); experiment: HDAC enzyme inhibition assay; type: biochemical
HDAC8 = biological target: T1, HDAC8 (Homo sapiens, UniProt Q9BY41); experiment: HDAC enzyme inhibition assay; type: biochemical
T1 sequence (Q9BY41 1-377): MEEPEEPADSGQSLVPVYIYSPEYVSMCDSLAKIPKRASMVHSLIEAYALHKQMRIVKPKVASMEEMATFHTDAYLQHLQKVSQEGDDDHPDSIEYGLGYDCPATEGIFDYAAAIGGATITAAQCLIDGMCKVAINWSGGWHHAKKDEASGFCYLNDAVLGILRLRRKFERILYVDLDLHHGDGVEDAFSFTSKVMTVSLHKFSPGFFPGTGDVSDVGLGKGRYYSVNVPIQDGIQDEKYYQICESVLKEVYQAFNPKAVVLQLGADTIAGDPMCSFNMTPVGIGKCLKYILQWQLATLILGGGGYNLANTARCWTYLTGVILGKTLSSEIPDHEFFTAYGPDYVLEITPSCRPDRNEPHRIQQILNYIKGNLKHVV

HDAC2 = HDAC2 (Homo sapiens, UniProt Q92769); experiment: HDAC enzyme inhibition assay; type: biochemical
HDAC6 = biological target: T2, HDAC6 (Homo sapiens, UniProt Q9UBN7); experiment: HDAC enzyme inhibition assay; type: biochemical
T2 sequence (Q9UBN7 1-1215): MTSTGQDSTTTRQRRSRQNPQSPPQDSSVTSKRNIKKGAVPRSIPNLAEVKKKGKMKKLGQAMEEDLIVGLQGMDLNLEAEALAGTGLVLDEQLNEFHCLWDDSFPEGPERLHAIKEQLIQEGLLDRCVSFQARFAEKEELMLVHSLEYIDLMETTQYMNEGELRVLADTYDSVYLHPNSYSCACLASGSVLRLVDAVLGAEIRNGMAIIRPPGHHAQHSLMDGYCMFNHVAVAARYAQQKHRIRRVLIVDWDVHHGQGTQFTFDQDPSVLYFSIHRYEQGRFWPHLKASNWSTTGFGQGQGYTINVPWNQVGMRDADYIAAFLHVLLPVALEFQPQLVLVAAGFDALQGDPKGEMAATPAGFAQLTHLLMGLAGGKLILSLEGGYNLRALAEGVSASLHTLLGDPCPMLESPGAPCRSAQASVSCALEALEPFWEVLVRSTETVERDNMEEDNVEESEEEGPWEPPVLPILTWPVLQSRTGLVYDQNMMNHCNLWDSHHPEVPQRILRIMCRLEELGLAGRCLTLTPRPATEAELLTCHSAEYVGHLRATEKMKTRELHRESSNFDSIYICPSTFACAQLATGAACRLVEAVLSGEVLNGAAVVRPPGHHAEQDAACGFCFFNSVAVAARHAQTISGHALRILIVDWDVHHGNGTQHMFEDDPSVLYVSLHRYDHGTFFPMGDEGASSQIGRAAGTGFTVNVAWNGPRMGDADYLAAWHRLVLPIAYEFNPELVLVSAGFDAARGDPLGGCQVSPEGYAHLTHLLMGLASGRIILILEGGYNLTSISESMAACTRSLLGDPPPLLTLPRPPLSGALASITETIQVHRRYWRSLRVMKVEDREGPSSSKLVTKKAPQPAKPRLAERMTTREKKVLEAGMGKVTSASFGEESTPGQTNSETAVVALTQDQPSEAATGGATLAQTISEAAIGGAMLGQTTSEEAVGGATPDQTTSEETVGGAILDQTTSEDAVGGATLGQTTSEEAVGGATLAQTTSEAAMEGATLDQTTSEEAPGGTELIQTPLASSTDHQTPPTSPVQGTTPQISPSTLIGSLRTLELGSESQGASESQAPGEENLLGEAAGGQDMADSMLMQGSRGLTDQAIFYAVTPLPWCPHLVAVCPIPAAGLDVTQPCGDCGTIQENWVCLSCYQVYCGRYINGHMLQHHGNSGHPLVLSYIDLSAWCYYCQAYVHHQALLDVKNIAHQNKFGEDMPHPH

HDAC7 = biological target: T3, HDAC7 (Homo sapiens, UniProt Q8WUI4); experiment: HDAC enzyme inhibition assay; type: biochemical
T3 sequence (Q8WUI4 1-952): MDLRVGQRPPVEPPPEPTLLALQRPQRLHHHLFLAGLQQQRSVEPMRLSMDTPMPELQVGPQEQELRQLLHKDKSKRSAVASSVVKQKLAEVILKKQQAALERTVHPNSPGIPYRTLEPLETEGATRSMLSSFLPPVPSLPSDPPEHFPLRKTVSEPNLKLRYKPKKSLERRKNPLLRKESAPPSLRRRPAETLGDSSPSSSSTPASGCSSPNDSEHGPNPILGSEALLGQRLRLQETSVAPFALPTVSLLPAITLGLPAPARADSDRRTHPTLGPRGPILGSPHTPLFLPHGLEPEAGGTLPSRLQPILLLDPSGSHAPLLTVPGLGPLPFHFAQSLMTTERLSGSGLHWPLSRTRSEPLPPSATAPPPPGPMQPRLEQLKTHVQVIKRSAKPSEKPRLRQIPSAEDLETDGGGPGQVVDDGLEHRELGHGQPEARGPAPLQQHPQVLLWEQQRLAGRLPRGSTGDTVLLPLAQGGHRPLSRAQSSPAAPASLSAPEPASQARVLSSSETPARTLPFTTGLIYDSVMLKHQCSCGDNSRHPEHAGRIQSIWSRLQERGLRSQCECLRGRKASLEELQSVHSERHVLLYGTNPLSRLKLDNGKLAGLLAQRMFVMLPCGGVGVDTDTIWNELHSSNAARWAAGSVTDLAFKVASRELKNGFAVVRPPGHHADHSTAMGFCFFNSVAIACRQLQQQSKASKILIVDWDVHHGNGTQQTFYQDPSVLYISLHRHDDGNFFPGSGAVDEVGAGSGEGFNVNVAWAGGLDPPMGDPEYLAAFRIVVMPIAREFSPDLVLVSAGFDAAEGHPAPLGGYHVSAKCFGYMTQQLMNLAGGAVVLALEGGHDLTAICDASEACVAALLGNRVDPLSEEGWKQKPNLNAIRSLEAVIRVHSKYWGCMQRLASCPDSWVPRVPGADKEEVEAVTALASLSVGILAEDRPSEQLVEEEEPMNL

HDAC3 = HDAC3 (Homo sapiens, UniProt O15379); experiment: HDAC enzyme inhibition assay; type: biochemical
HDAC1 = HDAC1 (Homo sapiens, UniProt Q13547); experiment: HDAC enzyme inhibition assay; type: biochemical
HDAC9 = HDAC9 (Homo sapiens, UniProt Q9UKV0); experiment: HDAC enzyme inhibition assay; type: biochemical
HDAC4 = HDAC4 (Homo sapiens, UniProt P56524); experiment: HDAC enzyme inhibition assay; type: biochemical
HDAC11 = biological target: T4, HDAC11 (Homo sapiens, UniProt Q96DB2); experiment: HDAC enzyme inhibition assay; type: biochemical
T4 sequence (Q96DB2 1-347): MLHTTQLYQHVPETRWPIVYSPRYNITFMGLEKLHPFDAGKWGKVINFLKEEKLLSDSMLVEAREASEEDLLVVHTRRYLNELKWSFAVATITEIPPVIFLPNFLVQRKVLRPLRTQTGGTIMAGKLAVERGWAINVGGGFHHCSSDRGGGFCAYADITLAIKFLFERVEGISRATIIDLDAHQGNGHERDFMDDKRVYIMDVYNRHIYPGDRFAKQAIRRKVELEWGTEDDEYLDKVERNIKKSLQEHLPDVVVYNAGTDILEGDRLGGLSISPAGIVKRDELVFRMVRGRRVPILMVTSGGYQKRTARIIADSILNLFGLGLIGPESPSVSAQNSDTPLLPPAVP

HDAC10 = biological target: T5, HDAC10 (Homo sapiens, UniProt Q969S8); experiment: HDAC enzyme inhibition assay; type: biochemical
T5 sequence (Q969S8 1-669): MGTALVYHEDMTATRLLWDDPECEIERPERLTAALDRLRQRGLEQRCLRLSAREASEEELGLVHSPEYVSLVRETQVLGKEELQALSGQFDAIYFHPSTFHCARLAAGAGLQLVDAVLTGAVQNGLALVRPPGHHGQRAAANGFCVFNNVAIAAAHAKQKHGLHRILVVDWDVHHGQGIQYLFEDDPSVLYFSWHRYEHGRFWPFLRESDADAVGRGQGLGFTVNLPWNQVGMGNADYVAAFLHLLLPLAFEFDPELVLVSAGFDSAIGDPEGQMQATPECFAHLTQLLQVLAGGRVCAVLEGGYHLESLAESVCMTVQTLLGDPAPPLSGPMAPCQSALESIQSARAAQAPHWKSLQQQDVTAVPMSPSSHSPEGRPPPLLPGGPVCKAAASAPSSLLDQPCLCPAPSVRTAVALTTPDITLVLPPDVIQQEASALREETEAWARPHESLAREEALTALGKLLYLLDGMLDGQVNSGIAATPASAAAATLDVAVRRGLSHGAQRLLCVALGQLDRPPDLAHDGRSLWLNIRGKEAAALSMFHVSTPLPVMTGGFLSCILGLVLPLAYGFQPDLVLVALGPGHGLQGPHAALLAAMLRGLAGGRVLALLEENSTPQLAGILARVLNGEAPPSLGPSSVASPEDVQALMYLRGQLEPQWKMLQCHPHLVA

CYP2C19 = CYP2C19 (Homo sapiens, UniProt P33261); experiment: CYP inhibition assay, pooled human liver microsomes; type: in vitro ADME; conditions: probe S-mephenytoin
CYP2C9 = CYP2C9 (Homo sapiens, UniProt P11712); experiment: as above; type: in vitro ADME; conditions: probe diclofenac
CYP3A4 = CYP3A4 (Homo sapiens, UniProt P08684); experiment: as above; type: in vitro ADME; conditions: probe testosterone
Plasma protein binding = type: in vitro ADME; conditions: human
[1] = LogD determination, shake flask method; type: physicochemical; conditions: n-octanol/PBS, pH 7.4
Hepatocyte stability = type: in vitro ADME; conditions: human, hepatocytes
[2] = In vivo brain/plasma PK studies; parameters: species or system C57BL/6 mice; conditions: C57BL/6, mouse, ip, 1 mg/kg
CYP2D6 = CYP2D6 (Homo sapiens, UniProt P10635); experiment: CYP inhibition assay, pooled human liver microsomes; type: in vitro ADME; conditions: probe dextromethorphan
CYP1A2 = biological target: T6, CYP1A2 (Homo sapiens, UniProt P05177); experiment: as above; type: in vitro ADME; conditions: probe phenacetin
T6 sequence (P05177 1-516): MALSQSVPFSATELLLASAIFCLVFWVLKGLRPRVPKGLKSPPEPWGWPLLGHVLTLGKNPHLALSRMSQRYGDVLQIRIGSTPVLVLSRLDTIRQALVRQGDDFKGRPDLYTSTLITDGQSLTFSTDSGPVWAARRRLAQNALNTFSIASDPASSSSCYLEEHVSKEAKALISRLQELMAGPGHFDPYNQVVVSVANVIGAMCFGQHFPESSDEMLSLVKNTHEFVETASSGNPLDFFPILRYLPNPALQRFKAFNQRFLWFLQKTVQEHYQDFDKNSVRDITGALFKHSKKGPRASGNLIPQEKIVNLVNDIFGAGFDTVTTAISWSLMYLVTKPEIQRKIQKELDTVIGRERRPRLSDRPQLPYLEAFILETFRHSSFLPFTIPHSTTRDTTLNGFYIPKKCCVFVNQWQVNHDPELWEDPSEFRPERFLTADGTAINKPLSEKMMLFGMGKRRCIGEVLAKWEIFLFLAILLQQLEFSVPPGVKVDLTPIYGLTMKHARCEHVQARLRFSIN

Chain of HDAC5 (Q9UQL6 whole entry): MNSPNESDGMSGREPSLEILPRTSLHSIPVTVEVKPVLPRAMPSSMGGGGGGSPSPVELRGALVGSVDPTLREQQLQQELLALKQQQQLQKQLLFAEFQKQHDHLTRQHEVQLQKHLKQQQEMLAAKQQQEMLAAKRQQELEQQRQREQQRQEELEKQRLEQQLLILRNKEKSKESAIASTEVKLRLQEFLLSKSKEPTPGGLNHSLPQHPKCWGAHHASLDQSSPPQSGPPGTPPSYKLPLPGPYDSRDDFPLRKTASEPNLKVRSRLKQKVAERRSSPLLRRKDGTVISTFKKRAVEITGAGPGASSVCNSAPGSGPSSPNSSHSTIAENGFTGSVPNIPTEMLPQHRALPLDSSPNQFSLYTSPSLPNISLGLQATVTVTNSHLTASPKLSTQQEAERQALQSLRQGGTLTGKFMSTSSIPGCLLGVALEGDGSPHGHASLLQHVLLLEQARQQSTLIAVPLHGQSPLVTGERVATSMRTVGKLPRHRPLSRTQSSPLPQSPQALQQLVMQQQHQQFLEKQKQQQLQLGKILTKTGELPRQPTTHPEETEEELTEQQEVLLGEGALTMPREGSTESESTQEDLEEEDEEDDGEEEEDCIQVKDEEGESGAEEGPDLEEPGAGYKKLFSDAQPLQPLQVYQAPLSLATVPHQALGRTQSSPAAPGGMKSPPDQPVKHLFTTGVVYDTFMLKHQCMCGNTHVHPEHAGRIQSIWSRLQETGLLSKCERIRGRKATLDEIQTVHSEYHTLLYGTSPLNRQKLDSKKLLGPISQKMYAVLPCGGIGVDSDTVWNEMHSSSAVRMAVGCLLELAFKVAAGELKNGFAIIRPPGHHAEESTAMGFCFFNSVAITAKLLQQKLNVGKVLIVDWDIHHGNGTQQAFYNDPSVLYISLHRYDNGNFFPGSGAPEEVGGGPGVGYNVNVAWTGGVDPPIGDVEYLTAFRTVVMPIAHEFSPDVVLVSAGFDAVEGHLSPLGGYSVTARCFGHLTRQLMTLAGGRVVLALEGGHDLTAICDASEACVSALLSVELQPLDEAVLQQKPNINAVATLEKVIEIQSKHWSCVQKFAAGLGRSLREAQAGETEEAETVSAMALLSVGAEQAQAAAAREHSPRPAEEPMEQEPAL
Chain of HDAC9 (Q9UKV0 whole entry): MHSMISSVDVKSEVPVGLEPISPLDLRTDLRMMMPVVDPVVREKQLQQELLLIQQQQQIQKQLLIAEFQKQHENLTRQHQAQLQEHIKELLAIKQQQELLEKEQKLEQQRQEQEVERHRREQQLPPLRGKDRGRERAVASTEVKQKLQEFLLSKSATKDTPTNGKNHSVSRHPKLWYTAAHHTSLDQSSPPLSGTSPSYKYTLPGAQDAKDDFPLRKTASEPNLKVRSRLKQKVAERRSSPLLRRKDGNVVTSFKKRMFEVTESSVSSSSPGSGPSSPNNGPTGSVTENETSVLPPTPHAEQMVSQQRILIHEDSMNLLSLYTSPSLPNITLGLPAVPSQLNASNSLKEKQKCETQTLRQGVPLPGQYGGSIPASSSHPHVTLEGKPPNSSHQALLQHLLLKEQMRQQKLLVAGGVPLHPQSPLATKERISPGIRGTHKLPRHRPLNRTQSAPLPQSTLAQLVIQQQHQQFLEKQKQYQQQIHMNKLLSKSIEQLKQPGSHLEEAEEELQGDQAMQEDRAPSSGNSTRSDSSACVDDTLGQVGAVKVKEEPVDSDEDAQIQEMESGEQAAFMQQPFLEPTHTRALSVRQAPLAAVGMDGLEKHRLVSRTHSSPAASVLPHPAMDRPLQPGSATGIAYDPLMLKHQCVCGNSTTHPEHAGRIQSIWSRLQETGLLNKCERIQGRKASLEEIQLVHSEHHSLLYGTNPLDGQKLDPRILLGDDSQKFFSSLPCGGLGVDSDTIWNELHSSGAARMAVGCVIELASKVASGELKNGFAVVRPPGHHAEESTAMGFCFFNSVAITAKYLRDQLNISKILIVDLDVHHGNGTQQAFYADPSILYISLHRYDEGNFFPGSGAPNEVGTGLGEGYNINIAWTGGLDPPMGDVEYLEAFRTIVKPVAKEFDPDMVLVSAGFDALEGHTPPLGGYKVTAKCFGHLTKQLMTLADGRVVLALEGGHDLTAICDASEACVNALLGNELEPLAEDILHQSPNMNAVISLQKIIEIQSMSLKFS
Chain of HDAC3 (O15379 whole entry): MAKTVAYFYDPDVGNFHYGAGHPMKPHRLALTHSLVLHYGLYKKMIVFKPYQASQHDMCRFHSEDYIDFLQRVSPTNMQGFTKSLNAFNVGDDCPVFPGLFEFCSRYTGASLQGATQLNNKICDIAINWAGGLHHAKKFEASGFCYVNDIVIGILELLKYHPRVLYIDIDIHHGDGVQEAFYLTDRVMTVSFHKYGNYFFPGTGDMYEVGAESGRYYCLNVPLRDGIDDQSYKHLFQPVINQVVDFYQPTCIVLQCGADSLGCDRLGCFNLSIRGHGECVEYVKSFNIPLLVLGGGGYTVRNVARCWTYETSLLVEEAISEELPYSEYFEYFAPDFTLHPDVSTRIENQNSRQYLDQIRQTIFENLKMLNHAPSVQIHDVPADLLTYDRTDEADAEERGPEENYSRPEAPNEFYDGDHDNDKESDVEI
Chain of HDAC3 (Q9Y618 395-489 partner limits assumed): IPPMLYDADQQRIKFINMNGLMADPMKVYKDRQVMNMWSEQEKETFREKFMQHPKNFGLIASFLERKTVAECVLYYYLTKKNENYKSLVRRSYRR
Chain of HDAC4 (P56524 whole entry): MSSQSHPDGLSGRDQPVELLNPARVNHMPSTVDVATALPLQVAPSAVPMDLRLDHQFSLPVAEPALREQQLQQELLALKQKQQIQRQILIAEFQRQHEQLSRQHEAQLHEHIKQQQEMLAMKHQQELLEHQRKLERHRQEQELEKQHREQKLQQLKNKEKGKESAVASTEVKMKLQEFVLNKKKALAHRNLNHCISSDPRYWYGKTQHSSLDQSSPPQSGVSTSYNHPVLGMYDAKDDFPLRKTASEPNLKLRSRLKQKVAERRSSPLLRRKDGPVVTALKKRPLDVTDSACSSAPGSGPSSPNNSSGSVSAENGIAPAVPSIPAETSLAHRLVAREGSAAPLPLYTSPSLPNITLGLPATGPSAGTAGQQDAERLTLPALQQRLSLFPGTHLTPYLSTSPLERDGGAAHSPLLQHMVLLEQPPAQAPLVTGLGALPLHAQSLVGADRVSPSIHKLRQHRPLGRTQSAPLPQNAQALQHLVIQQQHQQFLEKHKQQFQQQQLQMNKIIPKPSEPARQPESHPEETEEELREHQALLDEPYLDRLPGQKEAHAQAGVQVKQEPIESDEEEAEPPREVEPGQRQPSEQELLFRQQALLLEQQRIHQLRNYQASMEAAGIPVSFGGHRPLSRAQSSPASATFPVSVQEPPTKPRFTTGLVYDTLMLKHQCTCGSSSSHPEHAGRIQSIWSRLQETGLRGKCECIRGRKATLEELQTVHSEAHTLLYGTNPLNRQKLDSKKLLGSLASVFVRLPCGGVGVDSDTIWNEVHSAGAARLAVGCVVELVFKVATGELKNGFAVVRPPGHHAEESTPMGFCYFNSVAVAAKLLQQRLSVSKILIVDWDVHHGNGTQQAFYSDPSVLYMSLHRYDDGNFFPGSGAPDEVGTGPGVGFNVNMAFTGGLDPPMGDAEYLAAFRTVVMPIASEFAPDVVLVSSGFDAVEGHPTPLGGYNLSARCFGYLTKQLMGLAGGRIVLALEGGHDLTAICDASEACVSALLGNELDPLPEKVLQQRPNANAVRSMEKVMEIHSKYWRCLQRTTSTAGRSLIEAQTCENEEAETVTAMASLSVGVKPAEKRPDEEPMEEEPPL
Chain of HDAC2 (Q92769 whole entry): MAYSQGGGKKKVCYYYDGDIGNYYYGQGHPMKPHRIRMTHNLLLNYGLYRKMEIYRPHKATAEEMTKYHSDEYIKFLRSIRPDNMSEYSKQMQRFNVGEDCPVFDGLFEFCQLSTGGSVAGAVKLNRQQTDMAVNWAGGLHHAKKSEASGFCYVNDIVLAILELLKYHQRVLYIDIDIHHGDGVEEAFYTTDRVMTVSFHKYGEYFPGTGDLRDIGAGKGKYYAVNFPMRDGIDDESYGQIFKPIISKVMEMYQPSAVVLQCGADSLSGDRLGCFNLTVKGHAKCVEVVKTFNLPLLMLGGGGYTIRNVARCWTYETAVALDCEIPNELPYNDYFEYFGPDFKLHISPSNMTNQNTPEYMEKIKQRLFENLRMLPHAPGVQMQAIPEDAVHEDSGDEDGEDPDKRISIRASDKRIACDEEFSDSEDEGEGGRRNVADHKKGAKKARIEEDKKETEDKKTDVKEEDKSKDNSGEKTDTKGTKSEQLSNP
Chain of HDAC1 (Q13547 whole entry): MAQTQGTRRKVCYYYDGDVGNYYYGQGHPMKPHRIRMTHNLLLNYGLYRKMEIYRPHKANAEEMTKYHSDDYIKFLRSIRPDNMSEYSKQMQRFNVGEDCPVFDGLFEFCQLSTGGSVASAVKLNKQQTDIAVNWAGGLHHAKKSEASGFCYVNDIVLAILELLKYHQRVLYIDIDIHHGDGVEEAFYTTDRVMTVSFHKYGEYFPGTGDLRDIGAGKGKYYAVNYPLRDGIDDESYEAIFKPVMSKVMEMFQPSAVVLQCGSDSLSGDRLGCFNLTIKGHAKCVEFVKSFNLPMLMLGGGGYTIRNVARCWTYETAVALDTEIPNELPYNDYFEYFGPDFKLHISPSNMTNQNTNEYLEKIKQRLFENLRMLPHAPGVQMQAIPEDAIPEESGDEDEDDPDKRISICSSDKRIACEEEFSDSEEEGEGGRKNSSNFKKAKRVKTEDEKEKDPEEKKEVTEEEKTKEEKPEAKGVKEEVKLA

| Compound | IC50 (HDAC5) | IC50 (HDAC8) | IC50 (HDAC2) | IC50 (HDAC6) | IC50 (HDAC7) | IC50 (HDAC3) | IC50 (HDAC1) | IC50 (HDAC9) | IC50 (HDAC4) | IC50 (HDAC11) | IC50 (HDAC10) | also measured |
| --- | --- | --- | --- | --- | --- | --- | --- | --- | --- | --- | --- | --- |
| COc1cc(C(=O)NO)ccc1CN1CCCCc2ccccc21 [15a, N-Hydroxy-3-methoxy-4-((2,3,4,5-tetrahydro-1H-benzo[b]azepin-1-yl)methyl)benzamide] | > 10 µM | > 10 µM | > 10 µM | 6.46 µM | > 10 µM | > 10 µM | > 10 µM | > 10 µM | > 10 µM | 9.52 µM | > 10 µM | – |
| COc1cc(CN2CCCCc3ccccc32)ccc1C(=O)NO [15b, N-Hydroxy2-methoxy-4-((2,3,4,5-tetrahydro-1H-benzo[b]azepin-1-yl)methyl)benzamide] | > 10 µM | 2.06 µM | > 10 µM | 4.16 µM | – | > 10 µM | > 10 µM | > 10 µM | > 10 µM | 3.52 µM | > 10 µM | – |
| O=C(NO)c1ccc(CN2CCCCc3ccccc32)c(F)c1 [15c, 3-Fluoro-N-hydroxy-4-((2,3,4,5-tetrahydro-1H-benzo[b]azepin-1-yl)methyl)benzamide] | 2.44 µM | 1.68 µM | > 10 µM | 0.0052 µM | 0.609 µM | 2.96 µM | 7.82 µM | 3.15 µM | 2.12 µM | 4.38 µM | 8.96 µM | inhibition at 25 min, 10 μmol/L (CYP2C19): 54%; selectivity for HDAC6 over other HDAC isoforms (HDAC6; HDAC6 vs other HDAC isoforms): > 119 fold; inhibition at 10 min, 10 μmol/L (CYP2C9): 34.8%; inhibition at 10 min, 10 μmol/L (CYP3A4): 89%; fraction unbound (Plasma protein binding): 0.006; logD at 1 h [1]: 3.4; half-life at 5 μM (Hepatocyte stability): 32.4 min; Kp at 4 h ([2]; brain and plasma, Brain/plasma ratio, C57BL/6 mice, 4 h): 2.3; concentration at 0.5 h ([2]; brain): 48.5 ng/mL; concentration at 1 h ([2]; brain): 11.5 ng/mL; concentration at 4 h ([2]; brain): 0.82 ng/mL; concentration at 0.5 h ([2]; plasma): 1.32 ng/mL; concentration at 1 h ([2]; plasma): 0.72 ng/mL; concentration at 4 h ([2]; plasma): 0.35 ng/mL; inhibition at 10 min, 10 μmol/L (CYP2D6): 36.3%; inhibition at 10 min, 10 μmol/L (CYP1A2): 36.8% |
| O=C(NO)c1ccc(CN2CCCCc3ccccc32)cc1F [15d, 2-Fluoro-N-hydroxy-4-((2,3,4,5-tetrahydro-1H-benzo[b]azepin-1-yl)methyl)benzamide] | > 10 µM | 9.11 µM | > 10 µM | 0.0251 µM | 3.02 µM | 2.46 µM | > 10 µM | > 10 µM | 3.56 µM | 5.42 µM | > 10 µM | – |
